Assays:
[1] = molecular target: T1, Polyunsaturated fatty acid lipoxygenase ALOX15 (Oryctolagus cuniculus, UniProt P12530); assay: biochemical; assay type: tissue-based, Reticulocytes;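 further: inhibition of 15-lipoxygenase enzyme activity measured with linoleic acid as the substrate; in other assays of this panel Not Active means under 50% inhibition at 10 µM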
T1 sequence (P12530 whole entry): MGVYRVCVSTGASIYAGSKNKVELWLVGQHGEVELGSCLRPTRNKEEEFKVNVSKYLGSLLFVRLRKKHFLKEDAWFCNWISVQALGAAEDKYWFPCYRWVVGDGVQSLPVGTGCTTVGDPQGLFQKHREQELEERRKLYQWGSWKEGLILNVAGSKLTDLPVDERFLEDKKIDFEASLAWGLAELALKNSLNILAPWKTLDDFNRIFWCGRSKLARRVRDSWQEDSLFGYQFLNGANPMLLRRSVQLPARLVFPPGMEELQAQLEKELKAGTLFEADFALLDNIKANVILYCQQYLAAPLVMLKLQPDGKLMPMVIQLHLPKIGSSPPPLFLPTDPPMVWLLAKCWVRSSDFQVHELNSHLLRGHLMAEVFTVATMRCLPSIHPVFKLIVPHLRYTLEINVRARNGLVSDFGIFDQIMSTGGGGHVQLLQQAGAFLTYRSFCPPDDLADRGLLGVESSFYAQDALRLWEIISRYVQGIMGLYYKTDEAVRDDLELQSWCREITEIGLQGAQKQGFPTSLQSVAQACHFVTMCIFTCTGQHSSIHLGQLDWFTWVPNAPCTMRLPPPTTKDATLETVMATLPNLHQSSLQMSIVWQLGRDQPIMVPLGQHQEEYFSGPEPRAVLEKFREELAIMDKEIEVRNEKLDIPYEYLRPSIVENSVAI

[2] = DRUGMATRIX: Sigma2 radioligand binding (ligand: [3H] Ifenprodil); assay type: cell membranes, Rattus norvegicus, Wistar, Brain, Membrane; conditions: Not Active = under 50% inhibition at 10 µM
[3] = DRUGMATRIX: Imidazoline I2, Central radioligand binding (ligand: [3H] Idazoxan); assay type: cell membranes, Rattus norvegicus, Wistar, Cerebral cortex, Membrane; conditions: Not Active = under 50% inhibition at 10 µM
[4] = DRUGMATRIX: Glutamate, NMDA, Phencyclidine radioligand binding (ligand: [3H] TCP); assay type: cell membranes, Rattus norvegicus, Wistar, Cerebral cortex, Membrane; conditions: Not Active = under 50% inhibition at 10 µM
[5] = DRUGMATRIX: Platelet-Derived Growth Factor (PDGF) radioligand binding (ligand: [125I] PDGF); assay type: cell-based; conditions: nih3t3; Not Active = under 50% inhibition at 10 µM
Carbonic anhydrase 2 = Carbonic anhydrase 2 (Homo sapiens, UniProt P00918); assay: DRUGMATRIX: Carbonic Anhydrase II enzyme inhibition (substrate: 4-Nitrophenyl acetate (4-NPA)); assay type: tissue-based, Erythrocyte; conditions: erythrocyte; Not Active = under 50% inhibition at 10 µM

CC#C[C@]1(O)CC[C@H]2[C@@H]3CCC4=CC(=O)CCC4=C3[C@@H](c3ccc(N(C)C)cc3)C[C@@]21C [MIFEPRISTONE]
IC50 ([1]; read-out: IC50): 555 nM
IC50 [2]: Not Active
Ki [2]: Not Active
IC50 [3]: Not Active
Ki [3]: Not Active
IC50 [4]: Not Active
Ki [4]: Not Active
IC50 [5]: Not Active
Ki [5]: Not Active
IC50 (Carbonic anhydrase 2): Not Active

Cc1cnc(NC(=O)C2=C(O)c3ccccc3S(=O)(=O)N2C)s1 [MELOXICAM]
IC50 ([1]; reticulocytes): Not Active
IC50 [2]: Not Active
Ki [2]: Not Active
IC50 [3]: Not Active
Ki [3]: Not Active
IC50 [4]: Not Active
Ki [4]: Not Active
IC50 [5]: Not Active
Ki [5]: Not Active
IC50 (Carbonic anhydrase 2): Not Active

O=[As][O-].[Na+] [SODIUM ARSENITE]
IC50 ([1]; reticulocytes): Not Active
IC50 [2]: Not Active
Ki [2]: Not Active
IC50 [3]: Not Active
Ki [3]: Not Active
IC50 [4]: Not Active
Ki [4]: Not Active
IC50 [5]: Not Active
Ki [5]: Not Active
IC50 (Carbonic anhydrase 2): Not Active

Cc1cccc(C)c1NC(=O)C(C)N (configuration not stated) [TOCAINIDE]
IC50 ([1]; reticulocytes): Not Active
IC50 [2]: Not Active
Ki [2]: Not Active
IC50 [3]: Not Active
Ki [3]: Not Active
IC50 [4]: Not Active
Ki [4]: Not Active
IC50 [5]: Not Active
Ki [5]: Not Active
IC50 (Carbonic anhydrase 2): Not Active

COC(=O)Nc1nc2ccc(C(=O)c3ccccc3)cc2[nH]1 [MEBENDAZOLE]
IC50 ([1]; reticulocytes): Not Active
IC50 [2]: Not Active
Ki [2]: Not Active
IC50 [3]: Not Active
Ki [3]: Not Active
IC50 [4]: Not Active
Ki [4]: Not Active
IC50 [5]: Not Active
Ki [5]: Not Active
IC50 (Carbonic anhydrase 2): Not Active

CCOC(=O)C1=C(C)NC(C)=C(C(=O)OCC)C1c1ccccc1/C=C/C(=O)OC(C)(C)C [LACIDIPINE]
IC50 ([1]; reticulocytes): Not Active
IC50 [2]: Not Active
Ki [2]: Not Active
IC50 [3]: Not Active
Ki [3]: Not Active
IC50 [4]: Not Active
Ki [4]: Not Active
IC50 [5]: Not Active
Ki [5]: Not Active
IC50 (Carbonic anhydrase 2): Not Active

CC[C@H](C)[C@@H](CO[C@@H](Cc1ccccc1)C(=O)N[C@@H](CCS(C)(=O)=O)C(=O)OC(C)C)NC[C@@H](N)CS
IC50 ([1]; reticulocytes): Not Active
IC50 [2]: Not Active
Ki [2]: Not Active
IC50 [3]: Not Active
Ki [3]: Not Active
IC50 [4]: Not Active
Ki [4]: Not Active
IC50 [5]: Not Active
Ki [5]: Not Active
IC50 (Carbonic anhydrase 2): Not Active

O=C(c1ccccc1)c1ccc2n1CCC2C(=O)O (configuration not stated) [KETOROLAC]
IC50 ([1]; reticulocytes): Not Active
IC50 [2]: Not Active
Ki [2]: Not Active
IC50 [3]: Not Active
Ki [3]: Not Active
IC50 [4]: Not Active
Ki [4]: Not Active
IC50 [5]: Not Active
Ki [5]: Not Active
IC50 (Carbonic anhydrase 2): Not Active

O=C(O)c1cc(/N=N/c2ccc(S(=O)(=O)Nc3ccccn3)cc2)ccc1O [SULFASALAZINE]
IC50 ([1]; reticulocytes): Not Active
IC50 [2]: Not Active
Ki [2]: Not Active
IC50 [3]: Not Active
Ki [3]: Not Active
IC50 [4]: Not Active
Ki [4]: Not Active
IC50 [5]: Not Active
Ki [5]: Not Active
IC50 (Carbonic anhydrase 2): Not Active

CC1(C)[C@H](C(=O)O)N2C(=O)C[C@H]2S1(=O)=O [SULBACTAM]
IC50 ([1]; reticulocytes): Not Active
IC50 [2]: Not Active
Ki [2]: Not Active
IC50 [3]: Not Active
Ki [3]: Not Active
IC50 [4]: Not Active
Ki [4]: Not Active
IC50 [5]: Not Active
Ki [5]: Not Active
IC50 (Carbonic anhydrase 2): Not Active

C1CCN2C[C@@H]3C[C@@H](CN4CCCC[C@@H]34)[C@H]2C1 [SPARTEINE]
IC50 ([1]; reticulocytes): Not Active
IC50 [2]: Not Active
Ki [2]: Not Active
IC50 [3]: Not Active
Ki [3]: Not Active
IC50 [4]: Not Active
Ki [4]: Not Active
IC50 [5]: Not Active
Ki [5]: Not Active
IC50 (Carbonic anhydrase 2): Not Active

LEAD(IV) ACETATE
IC50 ([1]; reticulocytes): Not Active
Ki ([1]; reticulocytes): Not Active
IC50 [2]: Not Active
Ki [2]: Not Active
IC50 [3]: Not Active
Ki [3]: Not Active
IC50 [4]: Not Active
Ki [4]: Not Active
IC50 [5]: Not Active
Ki [5]: Not Active
IC50 (Carbonic anhydrase 2): Not Active
Ki (Carbonic anhydrase 2): Not Active

— ChEMBL document CHEMBL1909046, “DrugMatrix in vitro pharmacology data”
